Test results taken from patent publication US7902371B2, “(1S,5S)-3-(5,6-dichloropyridin-3-yl)-3,6-diazabicyclo[3.2.0]heptane benzenesulfonate” (Abbott Laboratories, priority 2004, dated 2011).

Assays:
Type in all cases: physicochemical
[1] = thermodynamic based polymorph screen; conditions: for new crystal forms / polymorphs detected: besylate suspended in different solvents, three months
Procedure: A thermodynamic based polymorph screen was conducted with crystalline (1S,5S)-3-(5,6-dichloropyridin-3-yl)-3,6-diazabicyclo[3.2.0]heptane benzenesulfonate. The benzenesulfonate salt was suspended in different solvents including water, ethanol, acetonitrile, methanol, N,N-dimethylformamide, ethyl acetate, 1,4-dioxane, chloroform, pyridine, nitromethane, PEG 400 and […] water/methanol. […] This difference between the benzenesulfonate and 4-methylbenzenesulfonate salts is unexpected considering the structural similarities of the two acids. The lack of different physical forms is an advantage to chemical and physical processing operations.

[2] = solid state stability at 40° C. in the dark at 75% relative humidity; conditions: 75% RH
Procedure: Crystalline (1S,5S)-3-(5,6-dichloropyridin-3-yl)-3,6-diazabicyclo[3.2.0]heptane benzenesulfonate was tested for solid state stability at 40° C. in the dark at 75% relative humidity.

[3] = hygroscopicity (relative humidity adsorption/desorption isotherms); conditions: relative to acetate, citrate, maleate, methanesulfonate, 4-methylbenzenesulfonate and sulfate salts, FIGS. 1-7
Procedure: Relative humidity isotherms were collected using a VTI SGA-100 Symmetric Vapor Sorption Analyzer. About 2 to 30 mg of sample is added to the system. The relative humidity is held constant at each step until a constant weight equilibrium is achieved or a maximum of six hours per step.

[4] = intrinsic dissolution rate at 37° C.

Clc1cc(N2C[C@@H]3CN[C@@H]3C2)cnc1Cl.O=S(=O)(O)O [sulfate, (1S,5S)-3-(5,6-dichloropyridin-3-yl)-3,6-diazabicyclo[3.2.0]heptane sulfate]
new crystal forms / polymorphs detected [1]: multiple polymorphs were discovered

Cc1ccc(S(=O)(=O)O)cc1.Clc1cc(N2C[C@@H]3CN[C@@H]3C2)cnc1Cl [4-methylbenzenesulfonate salt, (1S,5S)-3-(5,6-dichloropyridin-3-yl)-3,6-diazabicyclo[3.2.0]heptane 4-methylbenzenesulfonate]
unique crystal forms isolated/characterized [1]: three unique crystal forms | new crystal forms / polymorphs detected [1]: multiple polymorphs were discovered

O=C(O)[C@H](O)[C@@H](O)C(=O)O [(L)-tartrate]
new crystal forms / polymorphs detected [1]: multiple polymorphs were discovered

Clc1cc(N2C[C@@H]3CN[C@@H]3C2)cnc1Cl.O=S(=O)(O)c1ccccc1 [(1S,5S)-3-(5,6-dichloropyridin-3-yl)-3,6-diazabicyclo[3.2.0]heptane Benzenesulfonate]
% remaining ([2]; 0 week): 99.72 ± 0.56% | % remaining ([2]; 1 week): 100.66 ± 0.51% | % remaining ([2]; 2 week): 99.47 ± 1.72% | % remaining ([2]; 4 week): 100.22 ± 0.59% | % remaining ([2]; 6 week): 100.53 ± 0.20% | % remaining ([2]; 8 week): 100.93 ± 0.37% | % remaining ([2]; 12 week): 100.84 ± 0.47% | unique crystal forms isolated/characterized [1]: only one | new crystal forms / polymorphs detected [1]: No new crystal forms were detected | hygroscopicity [3]: lower hygroscopicity relative to other salts | intrinsic dissolution rate ([4]; pH 1.0): 8.5 mg/min·cm^2 | intrinsic dissolution rate ([4]; pH 6.8): 10.1 mg/min·cm^2
